Columns and labels:
mice [1] = settings: cited from earlier work
KOR [2] = settings: cited from earlier work
mice [3] = settings: mouse, in vivo; cited from earlier work
male Fisher 344 rats [4] = settings: NorBNI 32 mg/kg 24 hours prior; U50,488H 6 mg/kg
male Fisher 344 rats [5] = experiment: Suppression of VTA ICSS by 1.8% lactic acid; type: in vivo, rat; settings: triazole 1.1 24 mg/kg
C57BL/6 mice [6] = experiment: Warm water tail immersion; type: in vivo, mouse
C57BL/6 mice [7] = experiment: Chloroquine phosphate-induced scratching; type: in vivo, mouse; settings: NorBNI 10 mg/kg ip 24 hours prior; triazole 1.1 1 mg/kg sc
[8] = after systemic dosing; cited from earlier work
KOR in mouse striatum = KOR in mouse striatum (Mus musculus, UniProt P33534); experiment: [35S]GTPγS binding in mouse striatal membranes; type: biochemical
striatal KOR = striatal KOR (Mus musculus, UniProt P33534); type: binding
KOR [9] = settings: compared to reference agonist U69,593; cited from earlier work
[10] = system: dopamine concentration in nucleus accumbens; experiment: Microdialysis of nucleus accumbens dopamine in freely moving mice; type: in vivo, mouse; settings: triazole 1.1 15 mg/kg ip
[11] = molecular target: KOR (OPRK1) βarrestin2 recruitment (Homo sapiens, UniProt P41145); experiment: βarrestin2 enzyme fragment complementation assay; type: cell-based
[12] = system: dopamine release in nucleus accumbens; settings: mouse brain slices
KOR [13] = experiment: Bias analysis, G protein; settings: reference U50,488H
human KOR = human KOR (Homo sapiens, UniProt P41145); type: biochemical
C57BL/6J male mice = settings: mouse, in vivo

Chain of KOR (OPRK1) βarrestin2 recruitment (P41145 whole entry, the tested form may be a part): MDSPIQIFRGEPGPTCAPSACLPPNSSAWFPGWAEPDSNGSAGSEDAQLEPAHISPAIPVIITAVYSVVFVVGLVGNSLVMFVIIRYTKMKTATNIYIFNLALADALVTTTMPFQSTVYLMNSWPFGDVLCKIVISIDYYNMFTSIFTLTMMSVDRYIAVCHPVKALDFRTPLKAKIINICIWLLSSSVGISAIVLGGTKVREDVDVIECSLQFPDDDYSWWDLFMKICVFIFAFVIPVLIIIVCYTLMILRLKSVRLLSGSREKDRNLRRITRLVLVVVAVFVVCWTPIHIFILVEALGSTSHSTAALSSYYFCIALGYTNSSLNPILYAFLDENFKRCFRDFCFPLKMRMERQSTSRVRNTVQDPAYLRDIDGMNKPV
Chain of human KOR (P41145 whole entry): as the sequence (P41145 whole entry, the tested form may be a part) above
Chain of striatal KOR (P33534 whole entry): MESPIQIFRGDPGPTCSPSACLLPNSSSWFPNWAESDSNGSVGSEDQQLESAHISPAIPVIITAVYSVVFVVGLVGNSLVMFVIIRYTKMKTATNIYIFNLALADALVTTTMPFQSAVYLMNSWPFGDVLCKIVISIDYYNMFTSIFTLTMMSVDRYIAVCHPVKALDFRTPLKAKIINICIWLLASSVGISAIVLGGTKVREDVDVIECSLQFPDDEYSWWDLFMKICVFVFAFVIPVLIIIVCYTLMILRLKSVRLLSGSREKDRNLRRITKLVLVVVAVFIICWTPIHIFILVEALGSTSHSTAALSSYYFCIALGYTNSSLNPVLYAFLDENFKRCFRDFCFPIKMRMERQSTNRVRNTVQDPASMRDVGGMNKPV
Chain of KOR in mouse striatum (P33534 whole entry): as above

RB-64
Conditioned place aversion (CPA) (mice [1]): produces conditioned place aversion (CPA) in mice | Bias for G protein signaling over βarrestin2 recruitment (KOR [2]): displays bias for G protein signaling over βarrestin2 recruitment | Antinociceptive efficacy and locomotor activity (mice [3]): preserves antinociceptive efficacy without decreasing locomotor activity

Oc1ccc2c3c1O[C@H]1c4[nH]c5c(c4C[C@@]4(O)[C@@H](C2)N(CC2CC2)CC[C@]314)C[C@@]1(O)[C@H]2Cc3ccc(O)c4c3[C@@]1(CCN2CC1CC1)[C@H]5O4 [NorBNI, Norbinaltorphimine, reference compound]
Blockade of U50,488H effects on ICSS (male Fisher 344 rats [4]): blocked | Blockade of analgesic effect of triazole 1.1 on lactic acid-suppressed ICSS (male Fisher 344 rats [5]; NorBNI 32 mg/kg prior): completely blocked | Antagonism of agonist-induced antinociception (tail flick) (C57BL/6 mice [6]; NorBNI 15 mg/kg ip, 10 min before U50,488H or triazole 1.1): fully antagonized the antinociception produced by both compounds | Blockade of antipruritic effects of triazole 1.1 (C57BL/6 mice [7]): blocked the antipruritic effects of triazole 1.1

Cc1ccc(CSc2nnc(-c3ccccn3)n2Cc2ccco2)cc1C(F)(F)F [Triazole 1.1, 2-(4-(furan-2-ylmethyl)-5-((4-methyl-3-(trifluoromethyl)benzyl)thio)-4H-1,2,4-triazol-3-yl)pyridine]
Brain penetration (tissue content in whole brain) [8]: brain-penetrant | EC50 (KOR in mouse striatum): 497 ± 34 nM | Reduction of specific [3H]U69,593 binding in striatum compared to untreated mice (striatal KOR): 40% | Preference for G protein signaling over βarrestin2 recruitment (KOR [9]): displays a preference for G protein signaling over βarrestin2 recruitment | Effect on lactic acid-induced suppression of ICSS (EF50 and Rmax) (male Fisher 344 rats [5]; […] lactic acid ip, ketoprofen 1 mg/kg sc, U50,488H 6 mg/kg): suppressed the effect of lactic acid compared to vehicle administration | Effect on dopamine concentration in nucleus accumbens (microdialysis) [10]: did not significantly affect dopamine concentrations | βarrestin2 enzyme fragment complementation assay Emax [11]: 98 ± 4% | Effect on evoked dopamine release, nucleus accumbens core ([12]; 10-1000 nM): no measureable decreases in the core | Effect on evoked dopamine release, nucleus accumbens shell ([12]; 10-1000 nM): a modest decrease in the shell only at the highest concentration tested | EC50 for decrease in dopamine release, nucleus accumbens core ([12]; 10-1000 nM cumulative): nonconvergence of curves | EC50 for decrease in dopamine release, nucleus accumbens shell ([12]; 10-1000 nM cumulative): nonconvergence of curves | Response latency (%MPE) in warm water tail flick assay (C57BL/6 mice [6]; C57BL/6 mice, sc, 20 min after injection, 10-s cutoff): produced an increase in response latency in a dose-dependent manner | Antinociceptive efficacy in KOR-KO mice (tail flick) (C57BL/6 mice [6]; KOR-KO mice, 30 mg/kg, ip): Neither drug had efficacy in KOR-KO mice | Bias factor G/β (10^ΔΔLogR) (KOR [13]; G protein/βarrestin2): 28 | ΔΔLogR (ΔLogR of [35S]GTPγS − ΔLogR of βarrestin2 EFC) (KOR [13]; with 95% CI): 1.44 (1.29 to 1.60) | [35S]GTPγS binding assay Emax (human KOR): 101 ± 5% | Locomotor activity (ambulation) in open field over 1 hour (C57BL/6J male mice): did not affect locomotor activity at any of the doses tested

From publication PMC5231411 (Science signaling, 2016)
